PubChem BioAssay (NCI)
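Cultured in 96-well plates, cells were exposed to test compound for 48 hours across five concentrations. Here, GI50 denotes the concentration required for 50% inhibition of growth. Definition used: TGI = concentration required for complete inhibition of growth.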

Columns and labels:
Assay in all cases: NCI anticancer screen, dose series, 48 h
[1] = system: DLD-1 colon
[2] = system: EKVX NSCLC
[3] = system: HCT-116 colon
[4] = system: KM20L2 colon
[5] = system: M14 melanoma
[6] = system: MALME-3M melanoma
[7] = system: SF-295 CNS
[8] = system: SNB-78 CNS
[9] = system: TK-10 renal
[10] = system: XF 498 CNS
[11] = system: BT-549 breast
[12] = system: PC-3 prostate

| SMILES | TGI [1] [µM] | TGI [2] [µM] | TGI [3] [µM] | TGI [4] [µM] | TGI [5] [µM] | TGI [6] [µM] | TGI [7] [µM] | TGI [8] [µM] | TGI [9] [µM] | TGI [10] [µM] | GI50 [11] [µM] | TGI [11] [µM] | GI50 [2] [µM] | GI50 [3] [µM] | GI50 [5] [µM] | GI50 [6] [µM] | GI50 [12] [µM] | TGI [12] [µM] | GI50 [7] [µM] | GI50 [9] [µM] |
| --- | --- | --- | --- | --- | --- | --- | --- | --- | --- | --- | --- | --- | --- | --- | --- | --- | --- | --- | --- | --- |
| S=C=NCCc1ccccc1 | 0.324 | 30.4 | 1.74 | 6.68 | 1.94 | 2.51 | 3.47 | 5.78 | 3.34 | 5.35 |  |  |  |  |  |  |  |  |  |  |
| COC1OC(C)C2OC(C)(C)OC2C1OC(C)=O (stereo unspecified) | > 100 |  | > 100 | > 100 | > 100 | > 100 | > 100 | > 100 | > 100 | > 100 |  |  |  |  |  |  |  |  |  |  |
| c1ccc(P(=C2c3ccccc3-c3ccccc32)(c2ccccc2)c2ccccc2)cc1 | 65.5 | 61.3 |  | 8.21 | 32.6 |  | 16.1 |  | 52.2 |  |  |  |  |  |  |  |  |  |  |  |
| O=C(C/C(CCC(=O)N(Cc1ccccc1)Cc1ccccc1)=N/Nc1ccc([N+](=O)[O-])cc1[N+](=O)[O-])c1ccccc1 | > 100 | > 100 | > 100 | > 100 | > 100 | > 100 | > 100 | > 100 | > 100 | > 100 |  |  |  |  |  |  |  |  |  |  |
| CC[N+](C)(CC)CC(C)(C)C(=O)/C=C/c1ccc(/C=C/C(=O)C(C)(C)C[N+](C)(CC)CC)cc1 | > 100 | > 100 | > 100 | > 100 | > 100 | > 100 | > 100 | > 100 | > 100 |  |  |  |  |  |  |  |  |  |  |  |
| Cc1nc2sccn2c1C(=O)NC(=O)Nc1ccc(Cl)cc1 | > 100 | > 100 | > 100 | > 100 | > 100 | > 100 | > 100 | > 100 | > 100 | 69.2 |  |  |  |  |  |  |  |  |  |  |
| O=C1C2C3C=C4c5ccccc5N(c5ccccc5)C4(C2C(=O)N1c1ccc(Br)cc1)[C@H]1C(=O)N(c2ccc(Br)cc2)C(=O)[C@@H]31 (stereo partly specified) | > 100 | > 100 | > 100 | > 100 | > 100 | > 100 | > 100 | > 100 | > 100 | > 100 |  |  |  |  |  |  |  |  |  |  |
| CCCCCCCCCCCCCC(=O)CSCCNC(=O)CCNC(=O)[C@@H](O)C(C)(C)COP(=O)(O)OP(=O)(O)OCC1OC(n2cnc3c(N)ncnc32)C(O)C1OP(=O)(O)O (stereo partly specified) | 41.1 | 41.3 | 30.1 | 48 | 32 | 34.6 | 27.3 | 36.5 | > 100 | 34.3 |  |  |  |  |  |  |  |  |  |  |
| COc1cc(C2C3=C(COC3=O)N(CCO)c3cc4c(cc32)OCO4)cc(OC)c1O (stereo unspecified) |  | > 50 | > 26.3 |  | 7.64 | > 50 | > 14.6 |  | > 50 |  | 2.28 | > 34.3 | 4.36 | 1.88 | 1.49 | 1.96 | 1.54 | > 50 | 1.47 | 4.54 |
| Cc1cc(Nc2cc(N3CCN(C)CC3)nc(Sc3ccc(NC(=O)C4CC4)cc3)n2)n[nH]1 |  | > 10 | > 10 |  | > 10 | > 10 | > 10 |  | > 10 |  | 5.89 | > 10 | > 10 | 0.273 | 1.48 | 4.85 | 4.24 | > 10 | 1.28 | > 10 |
